{
  "source": "patent US12534457B2",
  "about": "“Heteroaryl derivative compounds, and uses thereof” (Voronoi Inc., priority 2021, dated 2026)",
  "data": [
    {"test_system": "Ba/F3 cells expressing EGFR Del19/C797S (EGFR DC)", "assay": "Proliferation inhibitory activity, Ba/F3 cells expressing EGFR Del19/C797S (CellTiter-Glo)", "assay_type": "cell-based", "conditions": "Mus musculus, BaF3, 72 hours of compound treatment", "method_in_brief": "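Viability after 72 h of compound exposure was measured by luminescence (CellTiter-Glo) in Ba/F3 lines transduced with mutant EGFR. Final concentrations spanned 0.2 nM–5 μM over 12 threefold steps. Growth relative to untreated control gave GI50 values; each test was run three times.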", "units": {"GI50": "nM"}, "values": [
      {"smiles": "Fc1cc(F)cc([C@H]2CCON2c2cc(Nc3cccc4c3OCC4)ncn2)c1", "note": "[Example 159, (R)-6-(3-(3,5-difluorophenyl)isoxazolidin-2-yl)-N-(2,3-dihydrobenzofuran-7-yl)pyrimidin-4-amine]", "GI50": "50 to 500"},
      {"smiles": "CN1CCC(n2cc(-c3ccc(Nc4cc(N5OCC[C@@H]5c5cc(F)cc(F)c5)ncn4)c4c3CCO4)cn2)CC1", "note": "[Example 160, (R)-6-(3-(3,5-difluorophenyl)isoxazolidin-2-yl)-N-(4-(1-(1-methylpiperidin-4-yl)-1H-pyrazol-4-yl)-2,3-dihydrobenzofuran-7-yl)pyrimidin-4-amine]", "GI50": "50 to 500"},
      {"smiles": "CCC(=O)Nc1cc(Nc2cc(N3OCC[C@@H]3c3cc(F)cc(F)c3)ncn2)c(OC)cc1N1CCC(N2CCN(C3CC3)CC2)CC1", "note": "[Example 161, (R)—N-(2-(4-(4-cyclopropylpiperazin-1-yl)piperidin-1-yl)-5-((6-(3-(3,5-difluorophenyl)isoxazolidin-2-yl)pyrimidin-4-yl)amino)-4-methoxyphenyl)propionamide]", "GI50": "< 50"},
      {"smiles": "CN1CCN(c2c(-c3cnn(C)c3)cc(Nc3cc(N4OCC[C@@H]4c4ccccc4)ncn3)c3c2CCO3)CC1", "note": "[Example 162, (R)—N-(5-(1-methyl-1H-pyrazol-4-yl)-4-(4-methylpiperazin-1-yl)-2,3-dihydrobenzofuran-7-yl)-6-(3-phenylisoxazolidin-2-yl)pyrimidin-4-amine]", "GI50": "< 50"},
      {"smiles": "CCC(=O)Nc1cc(Nc2cc(N3OCC[C@@H]3c3cccs3)ncn2)c(OC)cc1N1CCC(N2CCN(C3CC3)CC2)CC1", "note": "[Example 163, (R)—N-(2-(4-(4-cyclopropylpiperazin-1-yl)piperidin-1-yl)-4-methoxy-5-((6-(3-(thiophene-2-yl)isoxazolidin-2-yl)pyrimidin-4-yl)amino)phenyl)propionamide]", "GI50": "< 50"},
      {"smiles": "CN1CCN(C2CCN(c3cc(OCC(F)(F)F)c(Nc4cc(N5OCC[C@@H]5c5ccccc5)ncn4)cc3-c3cnn(C)c3)CC2)CC1", "note": "[Example 164, (R)—N-(5-(1-methyl-1H-pyrazol-4-yl)-4-(4-(4-methylpiperazin-1-yl)piperidin-1-yl)-2-(2,2,2-trifluoroethoxy)phenyl)-6-(3-phenylisoxazolidin-2-yl)pyrimidin-4-amine]", "GI50": "< 50"},
      {"smiles": "Cn1cc(-c2cc(Nc3cc(N4OCC[C@@H]4c4ccccc4)ncn3)c(OCC(F)(F)F)cc2N2CCC(N3CCOCC3)CC2)cn1", "note": "[Example 165, (R)—N-(5-(1-methyl-1H-pyrazol-4-yl)-4-(4-morpholinopiperidin-1-yl)-2-(2,2,2-trifluoroethoxy)phenyl)-6-(3-phenylisoxazolidin-2-yl)pyrimidin-4-amine]", "GI50": "< 50"},
      {"smiles": "CN1CCN(c2cc(OCC(F)(F)F)c(Nc3cc(N4OCC[C@@H]4c4ccccc4)ncn3)cc2-c2cnn(C)c2)CC1", "note": "[Example 166, (R)—N-(5-(1-methyl-1H-pyrazol-4-yl)-4-(4-methylpiperazin-1-yl)-2-(2,2,2-trifluoroethoxy)phenyl)-6-(3-phenylisoxazolidin-2-yl)pyrimidin-4-amine]", "GI50": "< 50"},
      {"smiles": "Cn1cc(-c2cc(Nc3cc(N4OCC[C@@H]4c4ccccc4)ncn3)c(OCC(F)(F)F)cc2N2CCOCC2)cn1", "note": "[Example 167, (R)—N-(5-(1-methyl-1H-pyrazol-4-yl)-4-morpholino-2-(2,2,2-trifluoroethoxy)phenyl)-6-(3-phenylisoxazolidin-2-yl)pyrimidin-4-amine]", "GI50": "< 50"},
      {"smiles": "COc1cc(N2CCC(N3CCN(C)CC3)CC2)ccc1Nc1cc(N2OCC[C@@H]2c2cncc(F)c2)ncn1", "note": "[Example 169, (R)-6-(3-(5-fluoropyridin-3-yl)isoxazolidin-2-yl)-N-(2-methoxy-4-(4-(4-methylpiperazin-1-yl)piperidin-1-yl)phenyl)pyrimidin-4-amine]", "GI50": "50 to 500"},
      {"smiles": "COc1cc(N2CCC(N3CCN(C)CC3)CC2)ccc1Nc1cc(N2OCC[C@@H]2c2cc(F)cc(C#N)c2)ncn1", "note": "[Example 170, (R)-3-fluoro-5-(2-(6-((2-methoxy-4-(4-(4-methylpiperazin-1-yl)piperidin-1-yl)phenyl)amino)pyrimidin-4-yl)isoxazolidin-3-yl)benzonitrile]", "GI50": "50 to 500"},
      {"smiles": "Fc1cccc([C@H]2CCON2c2cc(Nc3ccc([C@H]4CCON4)cc3)ncn2)c1F", "note": "[Example 174, 6-((R)-3-(2,3-difluorophenyl)isoxazolidin-2-yl)-N-(4-((R)-isoxazolidin-3-yl)phenyl)pyrimidin-4-amine]", "GI50": "50 to 500"},
      {"smiles": "CN1OCC[C@H]1c1ccc(Nc2cc(N3OCC[C@@H]3c3cccc(F)c3F)ncn2)cc1", "note": "[Example 176, 6-((R)-3-(2,3-difluorophenyl)isoxazolidin-2-yl)-N-(4-((S)-2-methylisoxazolidin-3-yl)phenyl)pyrimidin-4-amine]", "GI50": "50 to 500"},
      {"smiles": "Fc1cccc([C@H]2CCON2c2cc(Nc3ccc([C@@H]4CCON4)cc3)ncn2)c1F", "note": "[Example 177, 6-((R)-3-(2,3-difluorophenyl)isoxazolidin-2-yl)-N-(4-((S)-isoxazolidin-3-yl)phenyl)pyrimidin-4-amine]", "GI50": "50 to 500"},
      {"smiles": "CN1CCN(c2ccc(Nc3cc(N4OCC[C@@H]4c4cncc(Cl)c4)ncn3)cc2)CC1", "note": "[Example 180, (R)-6-(3-(5-chloropyridin-3-yl)isoxazolidin-2-yl)-N-(4-(4-methylpiperazin-1-yl)phenyl)pyrimidin-4-amine]", "GI50": "50 to 500"},
      {"smiles": "COc1cc(N2CCC(N3CCN(C)CC3)CC2)ccc1Nc1cc(N2OCC[C@@H]2c2cncc(Cl)c2)ncn1", "note": "[Example 182, (R)-6-(3-(5-chloropyridin-3-yl)isoxazolidin-2-yl)-N-(2-methoxy-4-(4-(4-methylpiperazin-1-yl)piperidin-1-yl)phenyl)pyrimidin-4-amine]", "GI50": "< 50"},
      {"smiles": "COc1cc(N2CCC(N3CCN(C)CC3)CC2)ccc1Nc1cc(N2OCC[C@@H]2c2cccc(C(F)F)c2)ncn1", "note": "[Example 184, (R)-6-(3-(3-(difluoromethyl)phenyl)isoxazolidin-2-yl)-N-(2-methoxy-4-(4-(4-methylpiperazin-1-yl)piperidin-1-yl)phenyl)pyrimidin-4-amine]", "GI50": "50 to 500"},
      {"smiles": "COc1cc2c(cc1Nc1cc(N3OCC[C@@H]3c3cccc(F)c3F)ncn1)C(=O)N(C)C2", "note": "[Example 193, (R)-6-((6-(3-(2,3-difluorophenyl)isoxazolidin-2-yl)pyrimidin-4-yl)amino)-5-methoxy-2-methylisoindolin-1-one]", "GI50": "50 to 500"},
      {"smiles": "COc1cc(N2CCC3(CC2)CCN(C(C)(C)CF)CC3)c(-c2cnn(C)c2)cc1Nc1cc(N2OCC[C@@H]2c2cccc(F)c2F)ncn1", "note": "[Example 195, (R)-6-(3-(2,3-difluorophenyl)isoxazolidin-2-yl)-N-(4-(9-(1-fluoro-2-methylpropan-2-yl)-3,9-diazaspiro[5.5]undecan-3-yl)-2-methoxy-5-(1-methyl-1H-pyrazol-4-yl)phenyl)pyrimidin-4-amine]", "GI50": "< 50"},
      {"smiles": "C=Cc1cc(Nc2cc(N3OCC[C@@H]3c3cccc(F)c3F)ncn2)c(OC)cc1N1CCN(C)CC1", "note": "[Example 199, (R)-6-(3-(2,3-difluorophenyl)isoxazolidin-2-yl)-N-(2-methoxy-4-(4-methylpiperazin-1-yl)-5-vinylphenyl)pyrimidin-4-amine]", "GI50": "< 50"},
      {"smiles": "C#Cc1cc(Nc2cc(N3OCC[C@@H]3c3cccc(F)c3F)ncn2)c(OC)cc1N1CCN(C)CC1", "note": "[Example 200, (R)-6-(3-(2,3-difluorophenyl)isoxazolidin-2-yl)-N-(5-ethynyl-2-methoxy-4-(4-methylpiperazine-1-yl)phenyl)pyrimidin-4-amine]", "GI50": "< 50"},
      {"smiles": "COc1cc(N2CCN(C)CC2)c(-c2cnn(C)c2)nc1Nc1cc(N2OCC[C@@H]2c2cccc(F)c2F)ncn1", "note": "[Example 201, (R)-6-(3-(2,3-difluorophenyl)isoxazolidin-2-yl)-N-(3-methoxy-6-(1-methyl-1H-pyrazol-4-yl)-5-(4-methylpiperazin-1-yl)pyridin-2-yl)pyrimidin-4-amine]", "GI50": "< 50"},
      {"smiles": "COc1nc(N2CCN(C)CC2)c(-c2cnn(C)c2)cc1Nc1cc(N2OCC[C@@H]2c2cccc(F)c2F)ncn1", "note": "[Example 202, (R)-6-(3-(2,3-difluorophenyl)isoxazolidin-2-yl)-N-(2-methoxy-5-(1-methyl-1H-pyrazol-4-yl)-6-(4-methylpiperazin-1-yl)pyridin-3-yl)pyrimidin-4-amine]", "GI50": "< 50"},
      {"smiles": "C[C@@H]1[C@@H](CS(C)(=O)=O)CN1c1cc(Nc2cc(N3OCC[C@@H]3c3cccc(F)c3F)ncn2)cc(-c2cnn(C)c2)c1N1CCOCC1", "note": "[Example 203, 6-((R)-3-(2,3-difluorophenyl)isoxazolidin-2-yl)-N-(3-(1-methyl-1H-pyrazol-4-yl)-5-((2R,3S)-2-methyl-3-((methylsulfonyl)methyl)azetidin-1-yl)-4-morpholinophenyl)pyrimidin-4-amine]", "GI50": "< 50"},
      {"smiles": "C=CCN1CCN(C2CCN(c3ccc(Nc4cc(N5OCC[C@@H]5c5cccc(F)c5F)ncn4)c(OC)c3)CC2)CC1", "note": "[Example 206, (R)—N-(4-(4-(4-allylpiperazin-1-yl)piperidin-1-yl)-2-methoxyphenyl)-6-(3-(2,3-difluorophenyl)isoxazolidin-2-yl)pyrimidin-4-amine]", "GI50": "< 50"},
      {"smiles": "CCN1CCN(C2CCN(c3ccc(Nc4cc(N5OCC[C@@H]5c5cccc(F)c5F)ncn4)c(OC)c3)CC2)CC1", "note": "[Example 207, (R)-6-(3-(2,3-difluorophenyl)isoxazolidin-2-yl)-N-(4-(4-(4-ethylpiperazin-1-yl)piperidin-1-yl)-2-methoxyphenyl)pyrimidin-4-amine]", "GI50": "< 50"},
      {"smiles": "COc1cc(N2CCC(N3CCN(C4CCC4)CC3)CC2)ccc1Nc1cc(N2OCC[C@@H]2c2cccc(F)c2F)ncn1", "note": "[Example 208, (R)—N-(4-(4-(4-cyclobutylpiperazin-1-yl)piperidin-1-yl)-2-methoxyphenyl)-6-(3-(2,3-difluorophenyl)isoxazolidin-2-yl)pyrimidin-4-amine]", "GI50": "< 50"},
      {"smiles": "COc1cc(N2CCC(N3CCN(C4COC4)CC3)CC2)ccc1Nc1cc(N2OCC[C@@H]2c2cccc(F)c2F)ncn1", "note": "[Example 209, (R)-6-(3-(2,3-difluorophenyl)isoxazolidin-2-yl)-N-(2-methoxy-4-(4-(4-(oxetan-3-yl)piperazin-1-yl)piperidin-1-yl)phenyl)pyrimidin-4-amine]", "GI50": "< 50"}
    ]}
  ]
}
